Data from US11357779B2 (G1 Therapeutics, Inc., priority 2018, dated 2022).

Assay: Adverse events by CTCAE grade and frequency, all dosing cohorts
Format: in vivo, human
Source text: Patients were enrolled into 1 of 2 parallel, independently operating, dose-escalation dosing cohorts with Form B of Compound II administered continuously either once daily (QD) or twice daily (BID) with food with fixed-dose fulvestrant (intramuscularly every 14 days for the first three injections and then every 28 days). Pre- or perimenopausal patients also received goserelin for the duration of study treatment. A […] agonist was started at least 28 days before the first dose of Form B, and those patients who were taking another LHRH agonist were switched to goserelin on Day 1. Patients were split into […] cohorts providing once a day (QD) dosing of 200 mg, 300 mg, 400 mg, 500 mg, or 650 mg of Form B, or twice a day (BID) dosing of 100 mg, 150 mg, or 200 mg of Form B. The second dose in BID cohorts was not administered in the evening until at least 12 hours after the initial morning dose of Form B. The dosing cohorts for Form B of Compound II are provided in Table 1.

[1] = Dose 100 mg BID, adverse event frequency
[2] = Dose 150 mg BID, adverse event frequency
[3] = Dose 200 mg BID, adverse event frequency
[4] = Dose 200 mg QD, adverse event frequency
[5] = Dose 300 mg QD, adverse event frequency
[6] = Dose 400 mg QD, adverse event frequency
[7] = Dose 500 mg QD, adverse event frequency
[8] = Dose 650 mg QD, adverse event frequency
[9] = Total, all dosing cohorts, All Grades, frequency
[10] = Total, all dosing cohorts, CTCAE Grade 1, frequency
[11] = Total, all dosing cohorts, CTCAE Grade 2, frequency
[12] = Total, all dosing cohorts, CTCAE Grade 3, frequency
[13] = Total, all dosing cohorts, CTCAE Grade 4, frequency

Structure (SMILES): CC(C)N1CCN(c2ccc(Nc3ncc4cc5n(c4n3)C3(CCCCC3)CNC5=O)nc2)CC1 [Form B]
- ALT increase [1]: 0
- AST increased [1]: 0
- Anemia [1]: 2
- BUN increased [1]: 0
- Diarrhea [1]: 1
- Fatigue [1]: 1
- Febrile neutropenia [1]: 0
- GGT increased [1]: 0
- Hematuria [1]: 1
- Leukopenia [1]: 3
- Lymphopenia [1]: 0
- Metrorrhagia [1]: 0
- Nausea [1]: 2
- Neutropenia [1]: 4
- SCr increased [1]: 1
- Stomatitis [1]: 0
- Thrombocytopenia [1]: 1
- Vomiting [1]: 0
- ALT increase [2]: 0
- AST increased [2]: 0
- Anemia [2]: 1
- BUN increased [2]: 0
- Diarrhea [2]: 2
- Fatigue [2]: 1
- Febrile neutropenia [2]: 1
- GGT increased [2]: 0
- Hematuria [2]: 1
- Leukopenia [2]: 3
- Lymphopenia [2]: 0
- Metrorrhagia [2]: 1
- Nausea [2]: 1
- Neutropenia [2]: 3
- SCr increased [2]: 0
- Stomatitis [2]: 1
- Thrombocytopenia [2]: 1
- Vomiting [2]: 1
- ALT increase [3]: 0
- AST increased [3]: 0
- Anemia [3]: 0
- BUN increased [3]: 0
- Diarrhea [3]: 1
- Fatigue [3]: 1
- Febrile neutropenia [3]: 0
- GGT increased [3]: 0
- Hematuria [3]: 0
- Leukopenia [3]: 1
- Lymphopenia [3]: 0
- Metrorrhagia [3]: 0
- Nausea [3]: 1
- Neutropenia [3]: 2
- SCr increased [3]: 0
- Stomatitis [3]: 0
- Thrombocytopenia [3]: 0
- Vomiting [3]: 0
- ALT increase [4]: 0
- AST increased [4]: 0
- Anemia [4]: 3
- BUN increased [4]: 1
- Diarrhea [4]: 1
- Fatigue [4]: 0
- Febrile neutropenia [4]: 0
- GGT increased [4]: 0
- Hematuria [4]: 1
- Leukopenia [4]: 4
- Lymphopenia [4]: 1
- Metrorrhagia [4]: 0
- Nausea [4]: 0
- Neutropenia [4]: 4
- SCr increased [4]: 0
- Stomatitis [4]: 0
- Thrombocytopenia [4]: 0
- Vomiting [4]: 0
- ALT increase [5]: 0
- AST increased [5]: 0
- Anemia [5]: 1
- BUN increased [5]: 1
- Diarrhea [5]: 2
- Fatigue [5]: 1
- Febrile neutropenia [5]: 0
- GGT increased [5]: 0
- Hematuria [5]: 1
- Leukopenia [5]: 2
- Lymphopenia [5]: 0
- Metrorrhagia [5]: 0
- Nausea [5]: 2
- Neutropenia [5]: 3
- SCr increased [5]: 0
- Stomatitis [5]: 0
- Thrombocytopenia [5]: 1
- Vomiting [5]: 2
- ALT increase [6]: 1
- AST increased [6]: 1
- Anemia [6]: 2
- BUN increased [6]: 0
- Diarrhea [6]: 2
- Fatigue [6]: 2
- Febrile neutropenia [6]: 0
- GGT increased [6]: 1
- Hematuria [6]: 1
- Leukopenia [6]: 0
- Lymphopenia [6]: 0
- Metrorrhagia [6]: 0
- Nausea [6]: 3
- Neutropenia [6]: 3
- SCr increased [6]: 0
- Stomatitis [6]: 0
- Thrombocytopenia [6]: 1
- Vomiting [6]: 3
- ALT increase [7]: 1
- AST increased [7]: 0
- Anemia [7]: 2
- BUN increased [7]: 0
- Diarrhea [7]: 1
- Fatigue [7]: 1
- Febrile neutropenia [7]: 0
- GGT increased [7]: 0
- Hematuria [7]: 0
- Leukopenia [7]: 1
- Lymphopenia [7]: 0
- Metrorrhagia [7]: 0
- Nausea [7]: 3
- Neutropenia [7]: 3
- SCr increased [7]: 1
- Stomatitis [7]: 0
- Thrombocytopenia [7]: 3
- Vomiting [7]: 1
- ALT increase [8]: 0
- AST increased [8]: 0
- Anemia [8]: 0
- BUN increased [8]: 0
- Diarrhea [8]: 4
- Fatigue [8]: 1
- Febrile neutropenia [8]: 0
- GGT increased [8]: 0
- Hematuria [8]: 0
- Leukopenia [8]: 2
- Lymphopenia [8]: 0
- Metrorrhagia [8]: 0
- Nausea [8]: 3
- Neutropenia [8]: 2
- SCr increased [8]: 0
- Stomatitis [8]: 0
- Thrombocytopenia [8]: 0
- Vomiting [8]: 5
- ALT increase [9]: 2
- AST increased [9]: 1
- Anemia [9]: 11
- BUN increased [9]: 2
- Diarrhea [9]: 14
- Fatigue [9]: 8
- Febrile neutropenia [9]: 1
- GGT increased [9]: 1
- Hematuria [9]: 5
- Leukopenia [9]: 16
- Lymphopenia [9]: 1
- Metrorrhagia [9]: 1
- Nausea [9]: 15
- Neutropenia [9]: 24
- SCr increased [9]: 2
- Stomatitis [9]: 1
- Thrombocytopenia [9]: 7
- Vomiting [9]: 12
- ALT increase [10]: 1
- AST increased [10]: 0
- Anemia [10]: 3
- BUN increased [10]: 2
- Diarrhea [10]: 6
- Fatigue [10]: 5
- Febrile neutropenia [10]: 0
- GGT increased [10]: 0
- Hematuria [10]: 5
- Leukopenia [10]: 4
- Lymphopenia [10]: 0
- Metrorrhagia [10]: 0
- Nausea [10]: 8
- Neutropenia [10]: 6
- SCr increased [10]: 2
- Stomatitis [10]: 0
- Thrombocytopenia [10]: 5
- Vomiting [10]: 5
- ALT increase [11]: 1
- AST increased [11]: 1
- Anemia [11]: 2
- BUN increased [11]: 0
- Diarrhea [11]: 8
- Fatigue [11]: 3
- Febrile neutropenia [11]: 0
- GGT increased [11]: 1
- Hematuria [11]: 0
- Leukopenia [11]: 9
- Lymphopenia [11]: 1
- Metrorrhagia [11]: 1
- Nausea [11]: 7
- Neutropenia [11]: 7
- SCr increased [11]: 0
- Stomatitis [11]: 1
- Thrombocytopenia [11]: 2
- Vomiting [11]: 3
- ALT increase [12]: 0
- AST increased [12]: 0
- Anemia [12]: 1
- BUN increased [12]: 0
- Diarrhea [12]: 0
- Fatigue [12]: 0
- Febrile neutropenia [12]: 1
- GGT increased [12]: 0
- Hematuria [12]: 0
- Leukopenia [12]: 3
- Lymphopenia [12]: 0
- Metrorrhagia [12]: 0
- Nausea [12]: 0
- Neutropenia [12]: 9
- SCr increased [12]: 0
- Stomatitis [12]: 0
- Thrombocytopenia [12]: 0
- Vomiting [12]: 0
- ALT increase [13]: 0
- AST increased [13]: 0
- Anemia [13]: 0
- BUN increased [13]: 0
- Diarrhea [13]: 0
- Fatigue [13]: 0
- Febrile neutropenia [13]: 0
- GGT increased [13]: 0
- Hematuria [13]: 0
- Leukopenia [13]: 0
- Lymphopenia [13]: 0
- Metrorrhagia [13]: 0
- Nausea [13]: 0
- Neutropenia [13]: 2
- SCr increased [13]: 0
- Stomatitis [13]: 0
- Thrombocytopenia [13]: 0
- Vomiting [13]: 0
